Assay results as given in article PMC12463534, “Exploring the Anticancer Properties of 4-Phenylthiazole-Based Ru(II) and Os(II) Metallacycles Featuring 1-Methylimidazole as N-Donor Functionality” (Bioinorganic Chemistry and Applications, 2025).
Read-outs that look alike come from different tables or passages of the source.

Key:
[1] = tested on: CH1/PA-1 ovarian teratocarcinoma cells; set-up: method as in PMID 38426897; conditions: MTT assay, exposure time 96 h; ref [5]; read-out: 50% inhibitory concentration CH1 (chlorido complexes, reference) (converted); cited from earlier work
[2] = tested on: SW480 colon adenocarcinoma cells; set-up: method as in PMID 38426897; conditions: MTT assay, exposure time 96 h; ref [5]; read-out: 50% inhibitory concentration SW480 (chlorido complexes, reference) (converted); cited from earlier work
[3] = tested on: A549 lung adenocarcinoma cells; set-up: method as in PMID 38426897; conditions: MTT assay, exposure time 96 h; ref [5]; read-out: 50% inhibitory concentration A549 (chlorido complexes, reference) (converted); cited from earlier work
[4] = tested on: CH1/PA-1 ovarian teratocarcinoma cells; assay: MTT assay, inhibition of cancer cell growth, CH1/PA-1; conditions: read-out: 50% inhibitory concentration CH1, exposure time 96 h
Description: (§1) CH1/PA-1 ovarian teratocarcinoma cells (CH1, RRID: CVCL_4992, provided by L. R. Kelland, CRC Center for Cancer Therapeutics, Institute of Cancer Research, Sutton, UK; confirmed by STR profiling as PA-1 ovarian teratocarcinoma cells at Multiplexion, Heidelberg, Germany), SW480 colon adenocarcinoma (RRID: CVCL_0546), and A549 lung adenocarcinoma cells (NCI-H2618, RRID: CVCL_A549; both cell lines were obtained from the American Type Culture Collection (ATCC), Manassas, VA, USA) were grown as adherent cultures in 75-cm^2 culture flasks (Starlab, Hamburg, Germany) by using minimal essential medium (MEM) supplemented with 1 mM sodium pyruvate, 4 mM L-glutamine, 1% (v/v) nonessential amino acids from 100-fold stock (all purchased from Sigma-Aldrich), and 10% heat-inactivated fetal bovine serum (Serana, Pessin, Germany).
(§2) The 3-(4,5-dimethylthiazol-2-yl)-2,5-diphenyl-2H tetrazolium bromide (MTT, Acros Organics, Geel, Belgium) assay was used to detect the cytotoxicity of the compounds after 96-h incubation. For this purpose, cells were harvested from culture flasks by trypsinization, seeded in 100-μL aliquots into 96-well microculture plates (Starlab, UK) in densities of 1 × 10^3 (CH1/PA-1), 2 × 10^3 (SW480), and 3 × 10^3 (A549) cells per well and incubated for 24 h prior to exposure to the test compounds. Stock solutions of test compounds were prepared in DMF, which were then diluted in MEM (not to exceed a final content of 0.5% v/v of organic solvent in the test plates), and serial dilutions were added in aliquots of 100 μL per well. […] After incubation for 4 h, the medium/MTT mixtures were removed, and the produced formazan crystals were dissolved in 150 μL DMSO per well. Optical densities at 550 nm were measured spectrophotometrically with a ELx808 Absorbance Microplate Reader (Bio-Tek, Winooski, VT, USA) by using a reference wavelength of 690 nm to correct for unspecific absorption.

[5] = tested on: A549 lung adenocarcinoma cells; assay: MTT assay, inhibition of cancer cell growth, A549; conditions: read-out: 50% inhibitory concentration A549, exposure time 96 h
Description: as §1, §2

[6] = tested on: SW480 colon adenocarcinoma cells; assay: MTT assay, inhibition of cancer cell growth, SW480; conditions: read-out: 50% inhibitory concentration SW480, exposure time 96 h
Description: as §1, §2

[7] = tested on: HCT116 colorectal cancer cell line (2D); assay: Resazurin assay, HCT116 2D (monolayer) culture; conditions: read-out: IC50 2D, resazurin assay, 96 h exposure
Description: Both models were investigated by the fluorimetric resazurin assay after 96-h exposure.
HCT116 colorectal carcinoma cells (RRID:CVCL_0291 from ATCC) were cultivated in McCoy's 5A medium, supplemented with 10% heat-inactivated fetal bovine serum and 4 mM L-glutamine.
For 2D experiments, HCT116 cells were harvested from culture flasks by trypsinization, seeded in 100-μL aliquots into 96-well microculture plates (CytoOne, TC-treated, from Starlab) in densities of 2 × 10^3 cells per well, and incubated for 24 h prior to exposure to the test compounds. […] Stock solutions of test compounds were prepared in DMF, which were then diluted in McCoy's 5A-supplemented medium (not to exceed a final content of 0.5% v/v of organic solvent in the test plates), and serial dilutions were added in aliquots of 100 μL per well. […] After incubation for 4 h, fluorescence was measured with a microplate reader (Bio-Tek, SynergyHT) at a wavelength of 530 nm, additionally using a reference wavelength of 620 nm.

[8] = tested on: HCT116 multicellular tumor spheroids (3D); assay: Resazurin assay, HCT116 3D multicellular tumor spheroids; conditions: read-out: IC50 3D; HCT116 3D spheroids, resazurin assay, 96 h exposure
SW480 cells = assay: DCFH-DA assay, cellular ROS levels; format: cell-based, human; conditions: for Effect on intracellular ROS levels: 2 h, concentration dependent
Description: For this approach, SW480 cells were subjected to the 2′,7′-dichlorofluorescin-diacetate (DCFH-DA) assay.
SW480 colon adenocarcinoma cells were trypsinized for 5 min in a humidified incubator at 37°C and under a 5% CO2 atmosphere. Supplemented MEM was added to stop trypsinization, and cells were centrifuged for 3 min at 1200 rpm (Heraeus Megafuge 1.0R). After cell counting, SW480 cells were seeded in 100-μL aliquots in densities of 2.5 × 10^4 cells/well into 96-well clear flat-bottom microplates (CytoOne, TC-treated, from Starlab). After incubation for 24 h, cells were washed with 200 μL of Hanks' balanced salt solution (HBSS; Sigma-Aldrich; supplemented with 1% heat-inactivated FCS). […] After washing cells with 200 μL of supplemented HBSS, serially diluted test compounds in phenol-red-free Opti-MEM (Gibco), supplemented with 1% heat-inactivated FCS, were added in 200-μl triplicates and tert-butyl hydroperoxide (TBHP) was applied as positive control. […] Blank-corrected values were calculated relative to negative controls (treated with drug-free supplemented Opti-MEM) from three independent experiments.

In the case of `Cc1ccc(C(C)C)cc1.Fc1ccc(-c2cscn2)[c]([Ru][Cl])c1` [Compound 1b], the IC50 [1] is listed as 3400 nM, the IC50 [2] is listed as 8.6 µM and the IC50 [3] is listed as 16 µM.

For `COc1ccc(-c2cscn2)[c]([Ru][Cl])c1.Cc1ccc(C(C)C)cc1` [Compound 1e], the IC50 [1] is listed as 7300 nM, the IC50 [2] is listed as 17 µM and the IC50 [3] is listed as 27 µM.

Work on `Cc1ccc(C(C)C)cc1.Cn1cc[n+]([Os-]2[c]3cc(F)ccc3-c3csc[n+]32)c1.O=[N+]([O-])O` [Compound 4b, [((3-κN)-1-Methylimidazole)(4-(4-fluorophenyl)thiazolato-κN,κC2′)(η^6-p-cymene)osmium(II)] Nitrate] yielded an IC50 [4] of 2700 ± 200 nM, an IC50 [5] of 20 ± 2 µM and an IC50 [6] of 7.4 ± 2.3 µM.

For `COc1ccc(-c2cscn2)[c]([Os][Cl])c1.Cc1ccc(C(C)C)cc1` [Compound 2e], the IC50 [1] is given as 2200 nM, the IC50 [2] is given as 7.1 µM and the IC50 [3] is given as 14 µM.

`Cc1ccc(C(C)C)cc1.Cn1cc[n+]([Os-]2[c]3cc(S(C)(=O)=O)ccc3-c3csc[n+]32)c1.O=[N+]([O-])[O-]` [Compound 4c, [((3-κN)-1-Methylimidazole)(4-(4-(methylsulfonyl)phenyl)thiazolato-κN,κC2′)(η^6-p-cymene)osmium(II)] Nitrate] gave an IC50 [7] of over 200 µM, an IC50 [4] of over 200000 nM and an IC50 [8] of 344 ± 19 µM. For the same molecule, the IC50 [5] was over 200 µM, the “Effect on intracellular ROS levels” value (SW480 cells) was “initially lowers ROS levels” and the IC50 [6] was over 200 µM.

For `Cc1ccc(C(C)C)cc1.Fc1ccc(-c2cscn2)[c]([Os][Cl])c1` [Compound 2b], the IC50 [1] is listed as 2000 nM, the IC50 [2] is listed as 7.1 µM and the IC50 [3] is listed as 10 µM.

For `Cc1ccc(-c2cscn2)[c]([Os][Cl])c1.Cc1ccc(C(C)C)cc1` [Compound 2d], the IC50 [1] is given as 3700 nM, the IC50 [2] is given as 9.3 µM and the IC50 [3] is given as 17 µM.

In the case of `Cc1ccc(C(C)C)cc1.[Cl][Os][c]1ccccc1-c1cscn1` [Compound 2a], the IC50 [1] is given as 3000 nM, the IC50 [2] is given as 9.3 µM and the IC50 [3] is given as 17 µM.

In the case of `Cc1ccc(C(C)C)cc1.Cn1cc[n+]([Os-]2[c]3ccccc3-c3csc[n+]32)c1.O=[N+]([O-])[O-]` [Compound 4a, [((3-κN)-1-Methylimidazole)(4-phenylthiazolato-κN,κC2′)(η^6-p-cymene)osmium(II)] Nitrate], the IC50 [7] is reported as 9.6 ± 1.2 µM, the IC50 [4] is reported as 2300 ± 200 nM and the IC50 [8] is reported as 9.4 ± 4.6 µM. The IC50 [5] was 12 ± 1 µM, the “Effect on intracellular ROS levels” value (SW480 cells) was “initially lowers ROS levels” and the IC50 [6] was 5.9 ± 1.9 µM.

For `Cc1ccc(C(C)C)cc1.Cc1ccc2[c](c1)[Os-]([n+]1ccn(C)c1)[n+]1cscc1-2.O=[N+]([O-])O` [Compound 4d, [((3-κN)-1-Methylimidazole)(4-(4-methylphenyl)thiazolato-κN,κC2′)(η^6-p-cymene)osmium(II)] Nitrate], the IC50 [4] was 1200 ± 200 nM, the IC50 [5] was 7.1 ± 0.6 µM and the IC50 [6] was 3.4 ± 0.9 µM.

For `CS(=O)(=O)c1ccc(-c2cscn2)[c]([Os][Cl])c1.Cc1ccc(C(C)C)cc1` [Compound 2c], the IC50 [1] is given as 830 nM, the IC50 [2] is given as 4.4 µM and the IC50 [3] is given as 10 µM.

Work on `COc1ccc2[c](c1)[Os-]([n+]1ccn(C)c1)[n+]1cscc1-2.Cc1ccc(C(C)C)cc1.O=[N+]([O-])O` [Compound 4e, [((3-κN)-1-Methylimidazole)(4-(4-methoxyphenyl)thiazolato-κN,κC2′)(η^6-p-cymene)osmium(II)] Nitrate] yielded an IC50 [4] of 2100 ± 500 nM, an IC50 [5] of 24 ± 1 µM and an IC50 [6] of 8.1 ± 2.6 µM.

In the case of `CC(C)(C)OO` [positive control, tert-butyl hydroperoxide, reference compound], the “Elevation of ROS levels vs negative control” value (SW480 cells; positive control) is reported as “more than 3 fold”.
